Measured values taken from patent US12577138B2, “Using Daphnia for bioremediation” (priority 2019, dated 2026).

Test system: Daphnia magna genotype pools
Assay: Viability of Daphnia magna genotype pools (1999, 1980, 1960) exposed to Carbaryl for four weeks
Assay type: in vivo
Conditions: Carbaryl 10 μg/L
Experimental: The ability to thrive of different Daphnia magna genotype pools resurrected from 1999, 1980, and 1960, was tested in presence of high concentrations of the carbamate insecticide Carbaryl (10 μg/L). Carbamate pesticides have been used at high levels since the 1970s, and so carbamate pesticides represent a common contaminant to current wastewater.
The three genotype pools were exposed to high concentrations of the carbamate insecticide Carbaryl in replicated large aquaria of 10 L. The aquaria contained borehole water to which a known concentration of Carbaryl was added. Each pool comprised different genotypes but the number of individuals in each pool was identical.
Prior to the exposure, the genotypes were individually cultured for two generations in the following conditions to control for maternal effects and synchronize reproduction: 20° C.; long photoperiod (16:8 light:dark regime); feed daily with 0.8 mg Carbon/L of C. vulgaris; medium was renewed every second day. After this phase, five 24-48 h old juveniles from the second brood of the third generation from 7 genotypes of each pool were randomly assigned to three replicated 10 L aquaria resulting in a total of 105 animals per aquarium (5 juveniles×7 genotypes×3 pools). The aquaria were then exposed to Carbaryl for four weeks (3 clonal generations). […]
The initial occurrence of each pool of genotypes was then compared to the random subset of animals sampled at the end of the experiment and genetically fingerprinted. This allowed to quantify changes in the occurrence of pool of genotypes from the three initially equally inoculated three pools. Changes in the occurrence of each pool of genotypes between the inoculum and the end of the experiment were quantified with a chi-squared test using the “stats” package in R v. […]

CNC(=O)Oc1cccc2ccccc12 [Carbaryl]
change in occurrence of genotypes versus initial inoculum (1960 pool): did not experience a significant change in the number of genotypes
change in occurrence of genotypes versus initial inoculum (1980 pool): significantly decrease in the number of genotypes and almost disappeared
change in occurrence of genotypes versus initial inoculum (1999 pool): did not experience a significant change in the number of genotypes
